Consider five molecules from patent US20020123456A1, “Methods of identifying agents affecting atrophy and hypertrophy” (priority 2001, published 2002).

The test system of one data set is rat plantaris muscle. Put plainly: Compensatory hypertrophy of the plantaris after surgical overload. Format: in vivo. As to the method: Female Sprague-Dawley rats (250-275 g) were anaesthetized with ketamine/xylazine (50/10 mg kg-1, intraperitoneally); with the use of aseptic surgical techniques the soleus, medial gastrocnemius and lateral gastrocnemius muscles were removed bilaterally, producing a functional overload on the plantaris muscles. In some instances, plasmid DNA (100 μl) was injected into the muscle immediately after the procedure. The hindlimbs of adult female SD rats (225-250 g) were unloaded by suspending their tails with a tail-traction bandage as described29. At the appropriate times, rats were killed and hindlimb muscles were removed, weighed and frozen in isopentane cooled with liquid nitrogen. Weight-matched surgically untreated rats served as controls.
Transfection in vivo. Constructs used encoded the following: (1) myristoylated, c.a. […]
Muscle fibre size was obtained from digitally imaged serial cross-sections of cryostat-sectioned muscle. Individual muscle fibres were outlined and cross-sectional area was determined with a computerassisted image analysis system (MetaMorph™; Universal Imaging Corporation). All data are expressed as means ±s.e.m. […]

Data set [1] in a line: Rapamycin given to control (surgically untreated) adult animals. Format: in vivo, rat. To be noted: rapamycin for 14 days, data not shown. From the text:
The above findings indicate that the Akt pathway and its downstream targets are activated during muscle hypertrophy in vivo. To begin to determine the role of these activations, we used treatment in vivo with rapamycin, a quite specific inhibitor of one important Akt target, mTOR. Rapamycin, a selective blocker of mTOR, blocked hypertrophy in all models without causing atrophy in control muscles Rapamycin binds to its intracellular receptor, forming a complex that then binds to and inhibits mTOR activity (Schmeizie, T. & Hall, M. N. Cell 103, 253-262 (2000).). […] Treatment with rapamycin produced no non-specific effects; that is, there was no effect on body weight or the baseline weight of non-overloaded hindlimb muscles in these animals. Further, rapamycin given to control (surgically untreated) adult animals for 14 days had no effect on body weight or muscle weight (data not shown). In addition to the above results from rats, similar results were obtained when this hypertrophy model was performed in mice (data not shown).

Another data set concerns calcineurin/NFAT-C1. Put plainly: NFAT-C1 phosphorylation and translocation in C2C12 differentiated myotubes (immunoblot). As to conditions: for NFAT-C1 phosphorylation state and nuclear translocation: IGF-1 10 ng ml-1 or Ca-I 1.0 μM, 15 min. It is filed as cell-based. From the text: (§1) As a first step towards examining the roles of the calcineurin/NFAT and PI(3)K/Akt pathways during IGF-induced myotube hypertrophy, we added IGF-1 to differentiated myotubes and determined whether these pathways were activated. Calcineurin is a protein phosphatase that is activated by increases in intracellular calcium levels, which in turn dephosphorylates the NFAT transcription factors; this dephosphorylation results in the translocation of NFATs to the nucleus and subsequent gene transcription. NFAT dephosphorylation and nuclear translocation are therefore markers of calcineurin activation (FIG. 7, right). For markers of activation of the PI(3)K/Akt pathway, the phosphorylation of Akt itself or of downstream targets such as p70S6 kinase (p70S6K), PHAS-1/4E-BP1 or GSK3 were used (FIG. 7).
(§2) Protein analysis of total cell lysates was conducted as described8. The antibodies used were anti-phospho-Erk1/2 (Thr 202/Tyr 204; NEB); anti-phospho-Akt (Ser 473; NEB); anti-phospho- GSK3 (Ser 9/21; NEB); anti-phospho-p70S6K (Thr 389; NEB); anti-phospho-PHAS-1/4E-BP1 (Thr 65; NEB); anti-Erk1/2 (UBI), anti-Akt (NEB), anti-p70S6K (C-18; Santa Cruz), anti-PHAS-1/4EBP1 (Zymed) and anti-NFAT-C1 (7A6; Santa Cruz).
(§3) Immunoprecipitations and immunoblotting were performed as described. Proteins were detected with the chemiluminescence detection system Renaissance; NEN). To measure the enzymatic activity of p70S6K an immunocomplex kinase assay was performed as described (Azpiazu, I., Saltiel, A. R., DePaoli-Roach, A. A. & Lawrence, J. C. J. Biol. Chem. 271, 5033-5039 (1996)).
For orientation: Immunoblotting shows a protein as a band on a membrane.

For a further data set, the system named is PI(3)K/Akt/mTOR pathway. The experiment in a line: PI(3)K/Akt/mTOR and ERK signalling in C2C12 differentiated myotubes (immunoblot, kinase assay). It is filed as cell-based. As to conditions: for phosphorylation of downstream targets of the PI(3)K/Akt/mTOR pathway (Akt, p70S6K, GSK3, PHAS-1/4E-BP1): IGF-1 10 ng ml-1 or Ca-I 1.0 μM, 15 min.
Excerpt: as §1, §2, §3

In another data set the test system is C2C12 myotubes. Put plainly: C2C12 myotube hypertrophy (myotube diameter). It is filed as cell-based. As to conditions: LY294002 10 μM; for myotube size / hypertrophy, agent alone: D2 myotubes treated at day 2 after fusion, analysed day 4, IGF-1 10 ng ml-1, CsA 5 μM, Ca-I 1 μM; for IGF-1-induced myotube hypertrophy: D2 myotubes, IGF-1 10 ng ml-1 plus CsA 5 μM, rapamycin 2 ng ml-1, PD98059 or Ara-C 10 μM. As to the method:
FIG. 9. […] Myotubes were treated at day 2 after fusion with the PI(3)K inhibitor LY294002 (LY; 10 μM), the mTOR inhibitor rapamycin (RAP, 2 ng ml-1), IGF-1 (10 ng ml-1) and with a combination of IGF-1 and each inhibitor, and analyzed for morphological effects at day 4. […] C2C12 myotubes were treated at day 2 after induction of differentiation with IGF-1 (10 ng ml-1) or a combination of Ara-C (10 μM) and IGF-1 (10 ng ml-1), and analysed the next day. Untreated myotubes are shown (CON). […] Quantification of myotube diameters is shown. The average number of nuclei per myotube is presented for each condition in the bottom row.
To distinguish between effects on myoblast differentiation and those on the trophic state of existing myofibres, we exploited the C2C12 myoblast differentiation system. C2C12 myoblasts proliferate until they reach confluence; then, in serum-poor medium, the myoblasts fuse into multi-nucleated myotubes. Differentiated myotubes are predominant by 2 days after fusion (D2 myotubes) and survive for another 3 days. […] IGF-1-induced myotube hypertrophy, as measured by an increase in diameter and an increase in total protein, is normally accompanied by an increase in nuclei within the myofibres.
To obtain more direct evidence, we next used the pharmacological inhibitors of the calcineurin and PI(3)K/Akt pathways in assays of IGF-1-induced myotube hypertrophy. Further, we introduced gene-expression vectors into the myotubes that induced the expression of either activators or dominant-negative blockers of these pathways.
C2C12 myoblasts were cultured and transfected as described (Glass, D. J. et al. Cold Spring Harb. Symp. Quant. Biol. 57, 53-62 (1992)). Flow cytometry and cell sorting were performed on a Cytomation MoFlo (Fort Collins, Colorado) high-speed cell sorter (FACS) (Rommel, C. et al. Science 286, 1738-1741 (1999)). Myoblasts were fused into myotubes at confluence, by shifting the medium to DMEM+2% horse serum. Myotube diameter was quantified as follows: 10 fields were chosen randomly, and approximately 10 myotubes were measured per field. The average diameter per myotube was calculated as the mean of ten measurements taken along the length of the myotube. For the constitutively active Akt, kinaseinactive Akt, wild-type Akt, wild-type SHIP2, dominant-negative SHIP2, constitutively active p70S6K and dominant-negative GSK3β constructs, transfected myotubes were determined by the co-expression of enhanced green fluorescent protein (EGFP; see below for construct details); thus, only transfected myotubes were assessed for hypertrophy. For the tetracycline-inducible calcineurin, myotubes expressing calcineurin were identified by EGFP expression, and comparisons were made between EGFP-positive and EGFP-negative myotubes. […]

“Also recorded” adds a separate entry of the source.

Molecule `CO[C@H]1C[C@@H]2CC[C@@H](C)[C@@](O)(O2)C(=O)C(=O)N2CCCC[C@H]2C(=O)O[C@H]([C@H](C)C[C@@H]2CC[C@@H](O)[C@H](OC)C2)CC(=O)[C@H](C)/C=C(\C)[C@@H](O)[C@@H](OC)C(=O)[C@H](C)C[C@H](C)/C=C/C=C/C=C/1C` [rapamycin] came in with a blockage of hypertrophy with rat plantaris muscle (adaptive hypertrophy in adult animals, rapamycin) of 95%. Moreover, in the data set with rat plantaris muscle (overloaded rats treated with rapamycin 1.5 mg kg-1 i.p. daily), the “body weight or baseline weight of non-overloaded hindlimb muscles” value is “no effect”. In addition, the “body weight or muscle weight” value in data set [1] is “had no effect”.

As to IGF-1, the “calcium-ionophore-induced dephosphorylation and translocation of NFAT-C1” value with calcineurin/NFAT-C1 (Ca-I 1.0 μM, CsA 5 μM before stimulation or IGF-1 10 ng ml-1 simultaneously) is “blunted”. In addition, the “NFAT-C1 phosphorylation state and nuclear translocation” value in the data set with calcineurin/NFAT-C1 is listed as “hyperphosphorylation of NFAT”. The “phosphorylation of downstream targets of the PI(3)K/Akt/mTOR pathway (Akt, p70S6K, GSK3, PHAS-1/4E-BP1)” value with PI(3)K/Akt/mTOR pathway is “induced the phosphorylation”. Also, in the data set with C2C12 myotubes, the “myotube size / hypertrophy, agent alone” value is on record as “resulting in hypertrophy”.

On to cytosine-β-D-arabinofuranoside [Ara-C], for which the IGF-1-induced myotube hypertrophy result with C2C12 myotubes was “myotube diameter and total protein still increase; also recorded: does not inhibit IGF-1-mediated hypertrophy”.

Turning to `COc1cccc(-c2cc(=O)c3ccccc3o2)c1N` [PD98059], in the data set on PI(3)K/Akt/mTOR pathway (IGF-1 10 ng ml-1 15 min, CsA 5 μM, LY294002 10 μM, rapamycin 2 ng ml-1, PD98059), the “IGF-1-induced Akt / PI(3)K/Akt pathway activation” value was “without affecting steps in the PI(3)K/Akt/mTOR pathway”. Further, in the data set on PI(3)K/Akt/mTOR pathway (IGF-1 10 ng ml-1 15 min, LY294002 10 μM, PD98059 10 μM), the “IGF-1-induced ERK activation” value is reported as “did indeed block ERK activation”. Further, the IGF-1-induced myotube hypertrophy result with C2C12 myotubes is “did not block phenotypic hypertrophy”.

For `CNc1ccc2oc(C[C@H]3O[C@@]4(CC[C@H]3C)O[C@H]([C@H](C)C(=O)c3ccc[nH]3)[C@H](C)C[C@H]4C)nc2c1C(=O)O` [calcium ionophore, A23187], the “NFAT-C1 phosphorylation state and nuclear translocation” value with calcineurin/NFAT-C1 is on record as “dephosphorylation-induced downshift in NFAT”. Also, the “phosphorylation of downstream targets of the PI(3)K/Akt/mTOR pathway (Akt, p70S6K, GSK3, PHAS-1/4E-BP1)” value in the data set on PI(3)K/Akt/mTOR pathway was “none could be induced”; in the data set with PI(3)K/Akt/mTOR pathway (listed as Ca-I) it was “had no effect on these kinases”. Further, the “myotube size / hypertrophy, agent alone” value with C2C12 myotubes is listed as “thinner myotubes”.
